Reference: ChEMBL document CHEMBL1135082, “Benzylidene rhodanines as novel inhibitors of UDP-N-acetylmuramate/L-alanine ligase” (Bioorg Med Chem Lett, 2002)
≈ marks a conversion by molar mass, not a printed value.

What was measured:
Escherichia coli = assay: The whole cell inhibitory activity was evaluated against the Gram-negative Escherichia coli; Not active; type: functional
[1] = Inhibitory concentration against recombinant UDP-N-Acetylmuramate/L-Alanine Ligase (MurC) enzyme
Staphylococcus aureus = assay: The whole cell inhibitory activity was evaluated against Gram-positive methicillin-resistant Staphylococcus aureus (MRSA); type: functional
CHO [2] = assay: Cytotoxic effect at mammalian Chinese hamster ovary (CHO) cells; Toxic; type: functional, cell-based; settings: Cricetulus griseus
CHO [3] = assay: Cytotoxic effect at mammalian Chinese hamster ovary (CHO) cells; type: functional, cell-based; settings: Cricetulus griseus

SMILES | MIC (Escherichia coli) [µM] | IC50 [1] [µM] | MIC (Staphylococcus aureus) [µM] | IC50 (CHO [2]) [µM] | IC50 (CHO [3]) [µM]
O=C1NC(=S)S/C1=C\c1ccc(/C=C/c2ccccc2)cc1 | > 93 | 18 | > 93 | – | –
O=C1NC(=S)S/C1=C/c1cc([N+](=O)[O-])ccc1SCc1ccc(Cl)cc1 | > 65 | 27 | 31 (≈ 13.1 µg/mL) | 29 | –
O=C1NC(=S)S/C1=C\c1cc([N+](=O)[O-])ccc1Sc1ccc(Cl)cc1 | > 87 | 24 | 70 (≈ 28.6 µg/mL) | – | > 73
O=C1NC(=S)S/C1=C\c1cc([N+](=O)[O-])ccc1Oc1ccc(Cl)cc1 | > 76 | 24 | > 76 | – | –
O=C1NC(=S)S/C1=C\c1cccc(Oc2ccccc2)c1 | > 87 | 22 | 79 (≈ 24.8 µg/mL) | – | > 96
O=C1NC(=S)S/C1=C\c1cc(OCc2ccccc2)cc(OCc2ccccc2)c1 | > 69 | 12 | > 69 | – | –
